Experimental data taken from publication PMC12446468, “Anti-inflammatory and cytotoxic assessment of flavonoids isolated from Viola odorata flowers with computer-guided docking study” (Scientific Reports, 2025).
Values after ≈ are worked out from the molar mass of the structure shown.

Assays:
COX-1 = target: T1, COX-1 (Ovis aries, UniProt P05979); assay: COX-1 inhibition assay (Cayman COX kit); type: biochemical, ovine/human; settings: mean ± SE, n = 3
T1 construct: purchased Cayman 560131
T1 sequence (P05979 25-600): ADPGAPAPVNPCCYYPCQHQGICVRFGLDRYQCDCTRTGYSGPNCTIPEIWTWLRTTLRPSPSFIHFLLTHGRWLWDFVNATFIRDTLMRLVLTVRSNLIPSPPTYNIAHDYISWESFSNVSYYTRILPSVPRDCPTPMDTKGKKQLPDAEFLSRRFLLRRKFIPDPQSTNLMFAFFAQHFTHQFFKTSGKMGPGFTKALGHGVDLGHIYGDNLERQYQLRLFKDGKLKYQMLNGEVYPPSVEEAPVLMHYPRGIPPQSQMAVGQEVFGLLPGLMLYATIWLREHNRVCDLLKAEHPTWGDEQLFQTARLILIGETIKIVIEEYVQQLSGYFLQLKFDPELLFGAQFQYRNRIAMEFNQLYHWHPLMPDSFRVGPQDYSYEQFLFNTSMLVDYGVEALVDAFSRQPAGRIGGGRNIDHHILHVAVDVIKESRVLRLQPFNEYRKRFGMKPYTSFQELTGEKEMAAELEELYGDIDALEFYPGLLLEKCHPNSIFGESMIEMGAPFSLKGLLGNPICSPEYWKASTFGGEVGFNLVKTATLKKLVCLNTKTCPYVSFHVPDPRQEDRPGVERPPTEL
Excerpt: (§1) The requirements for High-Performance Liquid Chromatography (HPLC) and all compounds tested were of the utmost analytical purity. […] COX-1 and COX-2 (ovine/human), as well as the 5-LOX enzyme (human recombinant) were obtained from Sigma-Aldrich. Dulbecco’s Modified Eagle’s Medium (DMEM), along with penicillin/streptomycin and L-glutamine, were acquired from Gibco BRL, California, USA. Fetal bovine serum (FBS) and 3-(4, 5-dimethylthiazol-2-yl)-2, 5-[…] (MTT) were supplied by Sigma-Aldrich, St. Louis, Missouri, USA.
(§2) The methanolic extract of V. odorata flowers and isolated flavonoids were subjected to an in vitro anti-inflammatory assessment by inhibiting two isoenzymes, cyclooxygenase COX-1 and COX-2 (ovine/human), as well as the 5-LOX enzyme (human recombinant).

COX-2 = target: T2, COX-2 (Homo sapiens, UniProt P35354); assay: COX-2 inhibition assay (Cayman COX kit); type: biochemical, ovine/human
T2 construct: purchased Cayman 560131
T2 sequence (P35354 18-604): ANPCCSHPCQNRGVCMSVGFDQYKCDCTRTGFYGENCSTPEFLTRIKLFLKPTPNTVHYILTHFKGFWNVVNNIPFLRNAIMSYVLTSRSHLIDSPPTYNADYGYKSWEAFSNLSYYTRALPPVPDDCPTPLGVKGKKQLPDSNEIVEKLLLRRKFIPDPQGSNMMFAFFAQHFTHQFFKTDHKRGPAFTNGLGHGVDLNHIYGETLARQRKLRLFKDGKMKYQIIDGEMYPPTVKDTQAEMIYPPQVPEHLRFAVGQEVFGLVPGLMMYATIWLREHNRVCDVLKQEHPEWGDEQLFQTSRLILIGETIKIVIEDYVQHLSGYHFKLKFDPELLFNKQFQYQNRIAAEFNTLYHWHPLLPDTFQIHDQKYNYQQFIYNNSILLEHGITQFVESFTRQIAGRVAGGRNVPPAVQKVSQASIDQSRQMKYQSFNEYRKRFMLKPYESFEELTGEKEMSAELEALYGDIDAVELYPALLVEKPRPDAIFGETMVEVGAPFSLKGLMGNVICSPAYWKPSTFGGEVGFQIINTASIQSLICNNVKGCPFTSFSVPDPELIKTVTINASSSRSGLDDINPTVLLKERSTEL
Excerpt: as §1, §2

[1] = MTT cytotoxicity assay, Caco-2; type: cell-based, human; settings: human, Caco-2 cells (human colonic epithelial cells), 48 h
Protocol: (§3) The assessment of cytotoxicity for the methanolic extract and isolated flavonoids was performed under controlled and sterile conditions within a Class II A2 Laminar flow biosafety cabinet. The carcinoma cell lines used in this study was obtained from Nawah Scientific Inc. (Cairo, Egypt). The cells were cultured in Dulbecco’s Modified Eagle’s Medium, enriched with 10% heat-inactivated fetal bovine serum, 100 U/ml penicillin, and 100 μg/ml streptomycin sulfate, maintained at […] in humidified incubators with 5% CO2. Upon reaching approximately 80% confluence, the cells were subcultured using a trypsin–EDTA solution. Harvesting occurred during the logarithmic growth phase. The methanolic extract and isolated flavonoids were dissolved in DMSO and stored at − 20 °C. For each experimental trial, the stock solutions were mixed with the culture medium to obtain the required final concentrations.
(§4) The effectiveness of the extract was compared to that of the reference drug, Doxorubicin. The percentage of cell viability was calculated by taking the ratio of the absorbance of the plant extract to that of the control, multiplied by 100. Furthermore, the IC50 value of the plant extract was determined using Sigma Plot software version 11 (Spw.exe) (https://sigmaplot.software.informer.com/11.0/).

[2] = tested on: human colonic epithelial cells (Caco-2); assay: MTT cytotoxicity assay, Caco-2; type: cell-based; settings: Homo sapiens, Caco-2, 48 h, read-out: IC50
Protocol: as §3, §4

[3] = MTT cytotoxicity assay, HTC-116; type: cell-based, human; settings: human, HTC-116 cells (human colorectal carcinoma), 48 h
Protocol: as §3, §4

[4] = tested on: human colorectal carcinoma cells (HTC-116); assay: MTT cytotoxicity assay, HTC-116; type: cell-based; settings: Homo sapiens, HTC-116, 48 h, read-out: IC50
Protocol: as §3, §4

- IC50 (COX-1): 3.93 µM
- IC50 (COX-2; mean ± SE, n = 3): 4.72 µM
- Selectivity Index (COX-1/COX-2) (COX-2; ratio of IC50 COX-1 to IC50 COX-2): 0.83
Compound: COc1c(O)cc2oc(-c3ccccc3)c(OC)c(=O)c2c1O [5,7-Dihydroxy-3,6-dimethoxyflavone]
- cytotoxicity at 48 h, 6.25 µg/ml ([1]; Caco-2, 6.25 ug/ml): 27.8%
- viability at 48 h, 6.25 µg/ml ([1]; Caco-2, 6.25 ug/ml, read-out: % Cell viability): 72.2%
- cytotoxicity at 48 h, 12.5 µg/ml ([1]; Caco-2, 12.5 ug/ml): 37.8%
- viability at 48 h, 12.5 µg/ml ([1]; Caco-2, 12.5 ug/ml, read-out: % Cell viability): 62.2%
- cytotoxicity at 48 h, 25 µg/ml ([1]; Caco-2, 25 ug/ml): 48.9%
- viability at 48 h, 25 µg/ml ([1]; Caco-2, 25 ug/ml, read-out: % Cell viability): 51.1%
- cytotoxicity at 48 h, 50 µg/ml ([1]; Caco-2, 50 ug/ml): 66.5%
- viability at 48 h, 50 µg/ml ([1]; Caco-2, 50 ug/ml, read-out: % Cell viability): 33.5%
- cytotoxicity at 48 h, 100 µg/ml ([1]; Caco-2, 100 ug/ml): 86.7%
- viability at 48 h, 100 µg/ml ([1]; Caco-2, 100 ug/ml, read-out: % Cell viability): 13.3%
- IC50 [2]: 32.8 µg/mL (≈ 104 µM)
- cytotoxicity at 48 h, 6.25 µg/ml ([3]; HTC-116, 6.25 ug/ml): 29.8%
- viability at 48 h, 6.25 µg/ml ([3]; HTC-116, 6.25 ug/ml, read-out: % Cell viability): 70.2%
- cytotoxicity at 48 h, 12.5 µg/ml ([3]; HTC-116, 12.5 ug/ml): 39.2%
- viability at 48 h, 12.5 µg/ml ([3]; HTC-116, 12.5 ug/ml, read-out: % Cell viability): 60.8%
- cytotoxicity at 48 h, 25 µg/ml ([3]; HTC-116, 25 ug/ml): 49.9%
- viability at 48 h, 25 µg/ml ([3]; HTC-116, 25 ug/ml, read-out: % Cell viability): 50.1%
- cytotoxicity at 48 h, 50 µg/ml ([3]; HTC-116, 50 ug/ml): 64.9%
- viability at 48 h, 50 µg/ml ([3]; HTC-116, 50 ug/ml, read-out: % Cell viability): 35.1%
- cytotoxicity at 48 h, 100 µg/ml ([3]; HTC-116, 100 ug/ml): 85.9%
- viability at 48 h, 100 µg/ml ([3]; HTC-116, 100 ug/ml, read-out: % Cell viability): 14.1%
- IC50 [4]: 31.9 µg/mL (≈ 101 µM)
